The results in this text go back to EP0103381B1, “Substituted anthra(1,9-cd)pyrazol-6(2H)-ones” (WARNER-LAMBERT COMPANY, priority 1982, dated 1984).

For one test, the system named is Escherichia coli. The test can be described thus: agar plate paper-disc inhibition zone screening. It is filed as cell-based. To be noted: read-out: Inhibition Zone Diameter mm (Dose mg/ml) E. Coli; for zone of inhibition at 3000 µg/mL: Dose 3.0 mg/ml; for zone of inhibition at 500 µg/mL: Dose 0.5 mg/ml. As to the method:
(§1) The bacterial and yeast isolates are maintained in agar slants or in liquid media, hereby designated as inoculum media. The cultures are transferred at regular intervals in such media. (See Table for the corresponding inoculum media of each culture.) The organisms are generally transferred on to agar slants or liquid inoculum media and incubated overnight (18-20 hours): 37°C for the bacterial isolates and 28°C for the fungal cultures.
(§2) The microbial cells from the overnight agar slants are then scraped off and suspended in saline solution (0.85% NaCI). The microbial concentrations are adjusted to a light transmittancy of 20-35%, Junior Coleman Spectrophotometer (555 M). For the organisms that are maintained in liquid media, an aliquot of the culture suspension is simply diluted with saline to 20-35% light transmittancy.
(§3) The above microbial suspension serve as inocula for the assay plates. Thus, 0.16-10 ml (see Table for exact amount) are used to inoculate 100 ml of the molten-agar assay medium.
(§4) Stainless steel frames, 12.3 x 25.3 cm (ID) and glass plates, 15.3 x 31.7 cm are used to make the test trays. The frames are attached to the plates with tape at each end and the inner edges sealed with 2% agar. Twenty five ml of inoculated assay medium is spread evenly on each tray and allowed to solidify. The trays are covered, inverted, and refrigerated until used.
(§5) The compounds or samples to be tested are dissolved in suitable solvents, e.g., alcohols, dimethylsulfoxide, or N,N-dimethylformamide. The samples are generally dissolved so that the final concentration of the solvent is <10%.^* The compounds are tested at different concentrations: 3,000; 1,000; 500; 100; and 10 mcg/ml. Paper discs (12.7 mm diameter) are placed on the agar trays with forceps, then 0.08 ml of the dissolved compound is pipetted onto each disc using a 0.2 ml pipette.
(§6) The disked agar trays are incubated overnight (18-20 hours) at 37°C for the bacterial cultures and 28°C for the yeasts. The Penicillium avellaneium tray is incubated for at least […] since it is a slower- growing organism.
(§7) Active compounds show a zone of inhibition around the disc. The diameter of the zone is measured in mm. The zone diameter of active compounds ranges from a minimum of 13.5 mm to as high as 60 mm. The size of the zone diameter generally reflects the activity of the compound: the larger the zone the greater the activity.

The test system of the next test is Bacillus subtilis. The test can be described thus: agar plate paper-disc inhibition zone screening. In kind it is cell-based. To be noted: read-out: Inhibition Zone Diameter mm (Dose mg/ml) B. Subtilis; for zone of inhibition at 3000 µg/mL: Dose 3.0 mg/ml; for zone of inhibition at 1000 µg/mL: Dose 1.0 mg/ml. As to the method:
as §1, §2, §3, §4, §5, §6, §7

For a further test, the system named is Streptococcus faecalis. The test can be described thus: agar plate paper-disc inhibition zone screening. It is filed as cell-based. Conditions: Enterococcus faecalis, read-out: Inhibition Zone Diameter mm (Dose mg/ml) S. Faecalis; for zone of inhibition at 3000 µg/mL: Dose 3.0 mg/ml. How it is done: as §1, §2, §3, §4, §5, §6, §7
The test system of a further test is Aerobacter aerogenes. Description: agar plate paper-disc inhibition zone screening. In kind it is cell-based. Conditions: Klebsiella aerogenes, read-out: Inhibition Zone Diameter mm (Dose mg/ml) A. Aerogenes; for zone of inhibition at 3000 µg/mL: Dose 3.0 mg/ml. How it is done: as §1, §2, §3, §4, §5, §6, §7
Another test concerns Penicillium avellaneum. The test can be described thus: agar plate paper-disc inhibition zone screening. In kind it is cell-based. Conditions: Hamigera avellanea, read-out: Inhibition Zone Diameter mm (Dose mg/ml) P. Avellaneum; for zone of inhibition at 3000 µg/mL: Dose 3.0 mg/ml. As to the method: The Penicillium avellaneum is grown for six days, at 28°C, on an agar medium. This is to allow sporulation of the culture. The organism is then harvested by scraping off the cells from the agar surface (mycelia and spores) and suspending them in saline solution containing 0.05% Tween 80.
The suspension is adjusted to a light transmittancy of 20%. One ml of this suspension is used to inoculate 100 ml of the molten-agar assay medium.
as §4, §5, §6, §7

Test [1] has as its system lymphocytic leukemia P388. Description: in vivo lymphocytic leukemia P388 test. Set-up: species or system mice. To be noted: Mus musculus, P388, ip, 720 h, two single doses four days apart, read-out: T/C × 100 (Percent). As to the method:
The in vivo lymphocytic leukemia P388 test is carried out by the United States National Cancer Institute. The animals used are either male or female CD2F, mice. There are six to seven animals per test group. The tumor transplant is by intraperitoneal injection of dilute ascitic fluid containing cells of lymphocytic leukemia P388. The test compounds are administered intraperitoneally in two single doses with a four-day interval between doses at various dose levels following tumor inoculation. The animals are weighed and survivors are recorded on a regular basis for 30 days. A ratio of survival time for treated (T)/ control (C) animals is calculated. The criterion for efficacy is T/C x 100 > 125%. The positive control compound in this test is 1,4-dihydroxy-5,8-[bis[[2-[(2-hydroxyethyl)amino]-ethyl]amino]-9,10-anthracene- dione given at dosages ranging from 12.0 to 0.075 mg/kg. See Cancer Chemotherapy Reports, Part 3, 3, 1 (1972) for a comprehensive discussion of the protocol.

For the compound `CN(C)CCNCCn1nc2c3c(c(Cl)ccc31)C(=O)c1c(O)ccc(O)c1-2` [7,10-(OH)2; Cl*; (CH2)2NH(CH2)2NMe2, 5-Chloro-2-[2-[[2-(dimethylamino)ethyl]amino]ethyl]-7,10-dihydroxyanthra[1,9-cd]pyrazol-6(2H)-one], the zone of inhibition at 3000 µg/mL was found to be 0 mm in the test on Escherichia coli; 14 mm in the test with Bacillus subtilis; 0 mm in the test with Streptococcus faecalis; 0 mm in the test on Aerobacter aerogenes; 0 mm in the test on Penicillium avellaneum.
`CN(C)CCn1nc2c3c(c(Cl)ccc31)C(=O)c1c(O)ccc(O)c1-2` [7,10-(OH)2; Cl*; (CH2)2NMe2, 5-Chloro-2-[2-(dimethylamino)ethyl]-7,10-dihydroxyanthra[1,9-cd]pyrazol-6(2H)-one]: the zone of inhibition at 1000 µg/mL with Escherichia coli (Dose 1.0 mg/ml) came out at 14 mm. For the same compound, the results for the zone of inhibition at 3000 µg/mL with Bacillus subtilis, in the test with Streptococcus faecalis and in the test with Aerobacter aerogenes were 0 mm, 0 mm and 15 mm, respectively. The zone of inhibition at 500 µg/mL in the test on Penicillium avellaneum (Dose 0.5 mg/ml) stood at 15 mm.
On to `CCN(CC)CC(O)Cn1nc2c3c(c(Cl)ccc31)C(=O)c1c(O)ccc(O)c1-2` (centres unmarked) [7,10-(OH)2; Cl*; CH2CHOHCH2NEt2, 5-Chloro-2-[3-(diethylamino)-2-hydroxypropyl]-7,10-dihydroxyanthra[1,9-cd]pyrazol-6(2H)-one], for which the zone of inhibition at 500 µg/mL in the test on Escherichia coli was determined as 14 mm. Also, the zone of inhibition at 3000 µg/mL in the test with Bacillus subtilis worked out at 14 mm; in the test with Streptococcus faecalis, 14 mm; in the test on Aerobacter aerogenes, 0 mm; in the test with Penicillium avellaneum, 14 mm.
Regarding `CN(CCO)CCn1nc2c3c(c(Cl)ccc31)C(=O)c1c(O)ccc(O)c1-2` [7,10-(OH)2; Cl*; Me | (CH2)2N (CH2)2OH, 5-Chloro-7,10-dihydroxy-2-[2-[(2-hydroxyethyl)methylamino]ethyl]anthra[1,9-cd]pyrazol-6(2H)-one], the zone of inhibition at 3000 µg/mL in the test with Escherichia coli worked out at 14 mm; with Bacillus subtilis, 0 mm; with Streptococcus faecalis, 0 mm; in the test on Aerobacter aerogenes, 0 mm; in the test with Penicillium avellaneum, 0 mm.
Regarding `CCCCCCNc1ccc2c3c(nn2CCN(CC)CC)-c2ccccc2C(=O)c13` [Example 8, 2-[2-(Diethylamino)ethyl]-5-(hexylamino)anthra[1,9-cd]pyrazol-6(2H)-one], the zone of inhibition at 3000 µg/mL in the test with Escherichia coli is 0 mm; in the test on Streptococcus faecalis it was 0 mm; in the test with Aerobacter aerogenes, 0 mm; in the test with Penicillium avellaneum it was 16 mm. Besides, the zone of inhibition at 1000 µg/mL in the test with Bacillus subtilis came out at 16 mm.
For `O=C1c2ccccc2-c2nn(CCO)c3ccc(NCCNCCO)c1c23` [Example 12, 2-(2-Hydroxyethyl)-5-[[2-[(2-hydroxyethyl)amino]ethyl]amino]anthra[1,9-cd]pyrazol-6(2H)-one], the zone of inhibition at 3000 µg/mL with Escherichia coli was found to be 14 mm; in the test with Streptococcus faecalis it was 16 mm; with Penicillium avellaneum, 0 mm. Moreover, in the test on Bacillus subtilis (Dose 0.1 mg/ml), the zone of inhibition at 100 µg/mL is 14 mm. Moreover, in the test on Aerobacter aerogenes (Dose 0.5 mg/ml), the zone of inhibition at 500 µg/mL came out at 14 mm.
Take `O=C1c2ccccc2-c2nn(CCO)c3ccc(NCCN4CCOCC4)c1c23` [Example 14, 2-(2-Hydroxyethyl)-5-[[2-(4-morpholinyl)ethyl]amino][1,9-cd]pyrazol-6(2H)-one]: the zone of inhibition at 3000 µg/mL with Escherichia coli is 16 mm; with Streptococcus faecalis it was 0 mm; in the test with Aerobacter aerogenes it was 0 mm; in the test on Penicillium avellaneum, 0 mm. Also, the zone of inhibition at 1000 µg/mL in the test with Bacillus subtilis was determined as 16 mm.
As to `CCN(CC)CCCCNc1ccc2c3c(nn2CCO)-c2ccccc2C(=O)c13` [Example 16, 5-[[4-(Diethylamino)butyl]amino]-2-(2-hydroxyethyl)anthra[1,9-cd]pyrazol-6(2H)-one], the zone of inhibition at 3000 µg/mL in the test on Escherichia coli, in the test with Streptococcus faecalis, with Aerobacter aerogenes and in the test on Penicillium avellaneum was 0 mm throughout. In the test with Bacillus subtilis, the zone of inhibition at 1000 µg/mL was 25 mm.
Take `CCN(CC)CCCCCCCNc1ccc2c3c(nn2CCO)-c2ccccc2C(=O)c13` [Example 17, 5-[[7-(Diethylamino)heptyl]amino]-2-(2-hydroxyethyl)anthra[1,9-cd]pyrazol-6(2H)-one]: the zone of inhibition at 3000 µg/mL in the test on Escherichia coli, in the test on Streptococcus faecalis, in the test with Aerobacter aerogenes and with Penicillium avellaneum was 0 mm throughout. Besides, the zone of inhibition at 1000 µg/mL in the test with Bacillus subtilis is 20 mm.
For `O=C1c2ccccc2-c2nn(CCNCCO)c3ccc(NCCO)c1c23` [Example 24, 5-[(2-Hydroxyethyl)amino]-2-[2-[(2-hydroxyethyl)amino]ethyl]anthra[1,9-cd]pyrazol-6(2H)-one], the zone of inhibition at 500 µg/mL in the test with Escherichia coli was found to be 15 mm; with Bacillus subtilis (Dose 0.5 mg/ml), 18 mm. Besides, the zone of inhibition at 1000 µg/mL with Streptococcus faecalis (Dose 1.0 mg/ml) and in the test with Aerobacter aerogenes (Dose 1.0 mg/ml) was 14 mm throughout. For the same compound, the zone of inhibition at 3000 µg/mL in the test with Penicillium avellaneum is 0 mm.
Regarding `Cn1nc2c3c(c(NCCN)ccc31)C(=O)c1c(O)ccc(O)c1-2` [Example 40, 5-[(2-Aminoethyl)amino]-7,10-dihydroxy-2-methylanthra[1,9-cd]pyrazol-6(2H)-one], the zone of inhibition at 3000 µg/mL came out at 14 mm in the test on Escherichia coli; 0 mm in the test with Bacillus subtilis; 14 mm in the test on Streptococcus faecalis; 14 mm in the test on Aerobacter aerogenes; 0 mm in the test with Penicillium avellaneum.
On to `CCN(CC)CCn1nc2c3c(c(Cl)ccc31)C(=O)c1c(O)ccc(O)c1-2` [Example 49, 5-Chloro-2-[2-(diethylamino)ethyl]-7,1 0-dihydroxyanthra[1,9-cd] pyrazol-6(2H)-one], for which the zone of inhibition at 3000 µg/mL in the test on Escherichia coli amounted to 0 mm; with Streptococcus faecalis it was 0 mm; in the test with Aerobacter aerogenes it was 0 mm; with Penicillium avellaneum it was 16 mm. In addition, the zone of inhibition at 1000 µg/mL in the test with Bacillus subtilis was found to be 14 mm.
Consider `O=C1c2cccc(O)c2-c2nn(CCNCCO)c3ccc(NCCNCCO)c1c23` [Example 85, 10-Hydroxy-2-(2-[(2-hydroxyethyl)amino]ethyl]-5-[[2-[(2-hydroxyethyl)amino]ethyl]amino]anthra[1,9-cd] pyrazol-6(2H)-one], for which the figures for the zone of inhibition at 3000 µg/mL with Bacillus subtilis, with Streptococcus faecalis and with Penicillium avellaneum were 14 mm, 0 mm and 0 mm, respectively. In addition, the response vs control in vivo at 25 mg/kg in test [1] (P388, Dose 25 mg/kg intraperitoneally) worked out at 163%. For the same compound, the response vs control in vivo at 50 mg/kg in test [1] (P388, Dose 50 mg/kg intraperitoneally) was determined as 172%.
